Test results taken from PubChem BioAssay AID1963846 (Molecular Pharmacology Branch, DTP, NCI, 2024).

Tested on: 454973-116-R2-J3-PDC complex spheroid viability
Test: Anticancer human tumor 454973-116-R2-J3-PDC patient-derived pancreatic carcinoma cell line growth inhibition [POLQ]
Conditions: for IC50: curve of first compound; for viability, T/C: stronger effect = lower value
Method: Multicellular complex tumor spheroid response to Polymerase (POL) inhibitors (novobiocin, ART-558, RP6685) in combination with a variety of drugs and investigational agents in selected tumor cell lines
The POL inhibitors (novobiocin, ART-558, and RP6685) were evaluated both individually and in combination with standard of care and investigational anticancer small molecules within a complex spheroid model of solid tumors. . Complex spheroids include a stromal component modeled by human endothelial cells (HUVEC) and fibroblasts modeled by human mesenchymal stem cells (MSCs). The concentration ranges selected for each drug and investigational agent were based upon clinically achievable concentrations if the clinical Cmax of the agent was known.
Compounds. The drugs and investigational agents: novobiocin (NSC847541), ART-558 (NSC835418), RP-6685 (NSC848927), peposertib (NSC802822), ceralasertib (NSC780249), elimusertib (NSC800525), camonsertib (NSC841442), AZD-1390 (NSC803789), olaparib (NSC753686), talazoparib (NSC767125), rucaparib (NSC756644), sotorasib (NSC818433), MRTX-1133 (NSC836407), SN-38 (NSC673596), topotecan (NSC609699), epotoside (NSC141540), doxorubicin (NSC123127), gemcitabine (NSC613327), 5-fluorouracil (NSC19893), paclitaxel (NSC125973), vemurafenib (NSC761431), MSA-2 (NSC828583), SN-011 (NSC837082), adavosertib (NSC754352), prexasertib (NSC758257), carboplatin (NSC241240) and oxaliplatin (NSC266046), were obtained from the National Cancer Institute (NCI) Developmental Therapeutics Program Chemical Repository (21). The FDA-approved anticancer drug set is available from the Developmental Therapeutics Program at https://dtp.cancer.gov/organization/dscb/obtaining/. […] The stock solutions were prepared in dimethyl sulfoxide (DMSO, Sigma-Aldrich, St. Louis, MO, cat. D2650), except for the platinum compounds which were prepared in saline (Quality Biological, Gaithersburg, MD, cat. 114-055-101), at 800-fold the tested concentration and stored at -70 degrees C prior to their use. All drugs and investigational agents were tested over a range starting from a high concentration at or near the clinical Cmax and decreasing in half-log increments. If the clinical Cmax for an agent had not been determined, the highest concentration tested was 10 microM, except for SN-38, which was tested at a high concentration of 1 microM.
Cell Culture. All cells were maintained in an incubator at 37 degrees C and 5% CO2 with 95% humidity. The PDC lines were cultured according to standard operating procedures established by the NCI PDMR (https://pdmr.cancer.gov). Table 3 of the manuscript, lists the cell lines along with the number of the three cell types plated to form the mct-spheroids and media for tumor cell growth. After thawing, all PDC lines, except 997537-175-T-J1-PDC and 415267-285-R-J2-PDC, were cultured in Matrigel-coated flasks prepared with a working solution of 1X Ham's F-12 nutrient mix, without supplementation (Thermo Fisher Scientific, cat. 11765054), 100 U/mL penicillin-streptomycin (Thermo Fisher Scientific, cat. 15140122), and 2.5% Matrigel (Corning Inc., Corning, NY, cat. 354248) for the first three passages. The two PDC lines 997537-175-T-J1-PDC and 415267-285-R-J2-PDC were cultured on uncoated flasks. The 857933-349-R-J2-PDC line was cultured in 6C/Colon 1B media containing advanced DMEM/F-12 (Thermo Fisher Scientific, cat. 12634028), 10 mM HEPES (Thermo Fisher Scientific, cat. 15630080), 1X GlutaMAX supplement (Thermo Fisher Scientific, cat. 35050061), 0.1 mg/mL primocin (InvivoGen, San Diego, CA, cat. ant-pm-2), 10% defined fetal bovine serum, heat inactivated (HyClone Laboratories Inc., Logan, UT, cat. SH30070.03HI), 50% L-WRN conditioned media (ATCC, cat. CRL-3276), 1.25 mM N-Acetyl-L-cysteine (Sigma-Aldrich, cat. A9165), 10 mM nicotinamide (Sigma-Aldrich, cat. N0636), 1X B-27 supplement (Thermo Fisher Scientific, cat. 17504044), 1X N-2 supplement (Thermo Fisher Scientific, cat. […]

[1] = second compound 0.0316 µM, first compound 0.0316 µM
[2] = second compound 0.0316 µM, first compound 0.1 µM
[3] = second compound 0.0316 µM, first compound 0.316 µM
[4] = second compound 0.0316 µM, first compound 1 µM
[5] = second compound 0.0316 µM, first compound 3.16 µM
[6] = second compound 0.0316 µM, first compound 10 µM
[7] = second compound 0.1 µM, first compound 0.0316 µM
[8] = second compound 0.1 µM, first compound 0.1 µM
[9] = second compound 0.1 µM, first compound 0.316 µM
[10] = second compound 0.1 µM, first compound 1 µM
[11] = second compound 0.1 µM, first compound 3.16 µM
[12] = second compound 0.1 µM, first compound 10 µM
[13] = second compound 0.316 µM, first compound 0.0316 µM
[14] = second compound 0.316 µM, first compound 0.1 µM
[15] = second compound 0.316 µM, first compound 0.316 µM
[16] = second compound 0.316 µM, first compound 1 µM
[17] = second compound 0.316 µM, first compound 3.16 µM
[18] = second compound 0.316 µM, first compound 10 µM
[19] = second compound 1 µM, first compound 0.0316 µM
[20] = second compound 1 µM, first compound 0.1 µM
[21] = second compound 1 µM, first compound 0.316 µM
[22] = second compound 1 µM, first compound 1 µM
[23] = second compound 1 µM, first compound 3.16 µM
[24] = second compound 1 µM, first compound 10 µM
[25] = second compound 3.16 µM, first compound 0.0316 µM
[26] = second compound 3.16 µM, first compound 0.1 µM
[27] = second compound 3.16 µM, first compound 0.316 µM
[28] = second compound 3.16 µM, first compound 1 µM
[29] = second compound 3.16 µM, first compound 3.16 µM
[30] = second compound 3.16 µM, first compound 10 µM
[31] = second compound 10 µM, first compound 0.0316 µM
[32] = second compound 10 µM, first compound 0.1 µM
[33] = second compound 10 µM, first compound 0.316 µM
[34] = second compound 10 µM, first compound 1 µM
[35] = second compound 10 µM, first compound 3.16 µM
[36] = second compound 10 µM, first compound 10 µM
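Note: spheroids exposed to drugs for seven days before measurement.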
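Throughout, for viability, T/C: percent viability relative to DMSO vehicle control wells taken as 100%.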

Compound: CC1COCCN1c1cc(C2(O)CC3CCC(C2)O3)c2cnn(-c3ccn[nH]3)c2n1 (stereo unspecified) + Cc1cccc(N(C)C(=O)C2C(O)CCN2c2nc(C)cc(C(F)(F)F)c2C#N)c1
- IC50 (second compound 0.0316 µM): 190 nM
- IC50 (second compound 0.1 µM): 212 nM
- IC50 (second compound 0.316 µM): 199 nM
- IC50 (second compound 1 µM): 196 nM
- IC50 (second compound 3.16 µM): 182 nM
- IC50 (second compound 10 µM): 163 nM
- viability, T/C [1]: 91.2%
- viability, T/C [2]: 70%
- viability, T/C [3]: 33.4%
- viability, T/C [4]: 22.8%
- viability, T/C [5]: 20.6%
- viability, T/C [6]: 13.2%
- viability, T/C [7]: 90.6%
- viability, T/C [8]: 80.9%
- viability, T/C [9]: 33.5%
- viability, T/C [10]: 20.6%
- viability, T/C [11]: 21.5%
- viability, T/C [12]: 15.5%
- viability, T/C [13]: 93.9%
- viability, T/C [14]: 73.1%
- viability, T/C [15]: 34.3%
- viability, T/C [16]: 21.2%
- viability, T/C [17]: 22.8%
- viability, T/C [18]: 15.8%
- viability, T/C [19]: 102%
- viability, T/C [20]: 73%
- viability, T/C [21]: 33%
- viability, T/C [22]: 21.9%
- viability, T/C [23]: 20.1%
- viability, T/C [24]: 14.5%
- viability, T/C [25]: 98.5%
- viability, T/C [26]: 67.6%
- viability, T/C [27]: 34.7%
- viability, T/C [28]: 16.8%
- viability, T/C [29]: 26%
- viability, T/C [30]: 16.2%
- viability, T/C [31]: 105%
- viability, T/C [32]: 60.5%
- viability, T/C [33]: 36.7%
- viability, T/C [34]: 21.4%
- viability, T/C [35]: 28.3%
- viability, T/C [36]: 17.2%

Compound: CCc1cc2c(N3CCc4c(cc(Cn5ccnc5)cc4-c4cn(C)nc4C(F)(F)F)C3=O)cc(C)nc2c(OC)n1 + Cc1cccc(N(C)C(=O)C2C(O)CCN2c2nc(C)cc(C(F)(F)F)c2C#N)c1
- IC50 (second compound 0.0316 µM): > 10000 nM
- IC50 (second compound 0.1 µM): > 10000 nM
- IC50 (second compound 0.316 µM): > 10000 nM
- IC50 (second compound 1 µM): > 10000 nM
- IC50 (second compound 3.16 µM): > 10000 nM
- IC50 (second compound 10 µM): > 10000 nM
- viability, T/C [1]: 94.7%
- viability, T/C [2]: 84.6%
- viability, T/C [3]: 87.3%
- viability, T/C [4]: 75.5%
- viability, T/C [5]: 76.5%
- viability, T/C [6]: 56.9%
- viability, T/C [7]: 92.7%
- viability, T/C [8]: 99.2%
- viability, T/C [9]: 80.7%
- viability, T/C [10]: 80.1%
- viability, T/C [11]: 74.6%
- viability, T/C [12]: 60.8%
- viability, T/C [13]: 93.6%
- viability, T/C [14]: 84.5%
- viability, T/C [15]: 87.7%
- viability, T/C [16]: 76.9%
- viability, T/C [17]: 76.3%
- viability, T/C [18]: 61.6%
- viability, T/C [19]: 100%
- viability, T/C [20]: 94%
- viability, T/C [21]: 78.4%
- viability, T/C [22]: 73.6%
- viability, T/C [23]: 70.4%
- viability, T/C [24]: 58.6%
- viability, T/C [25]: 104%
- viability, T/C [26]: 89.3%
- viability, T/C [27]: 84.1%
- viability, T/C [28]: 74.7%
- viability, T/C [29]: 74.4%
- viability, T/C [30]: 63.8%
- viability, T/C [31]: 88.5%
- viability, T/C [32]: 90.2%
- viability, T/C [33]: 74.9%
- viability, T/C [34]: 71.5%
- viability, T/C [35]: 64.9%
- viability, T/C [36]: 53.2%

Compound: CC(=O)O[C@H]1C(=O)[C@@]2(C)[C@H]([C@H](OC(=O)c3ccccc3)[C@]3(O)C[C@H](OC(=O)[C@H](O)[C@@H](NC(=O)c4ccccc4)c4ccccc4)C(C)=C1C3(C)C)[C@]1(OC(C)=O)CO[C@@H]1C[C@@H]2O + Nc1ccc(C#CCN(C(=O)Cc2ncc(C(F)(F)F)cc2C(F)(F)F)c2ccc(F)cc2)nn1
- IC50 (second compound 0.0316 µM): < 9.49 nM
- IC50 (second compound 0.1 µM): < 9.49 nM
- IC50 (second compound 0.316 µM): < 9.49 nM
- IC50 (second compound 1 µM): < 9.49 nM
- IC50 (second compound 3.16 µM): < 9.49 nM
- IC50 (second compound 10 µM): < 9.49 nM
- viability, T/C (second compound 0.0316 µM, first compound 0.00949 µM): 6.03%
- viability, T/C (second compound 0.0316 µM, first compound 0.03 µM): 5.37%
- viability, T/C (second compound 0.0316 µM, first compound 0.0949 µM): 4.33%
- viability, T/C (second compound 0.0316 µM, first compound 0.3 µM): 4.12%
- viability, T/C (second compound 0.0316 µM, first compound 0.949 µM): 5.17%
- viability, T/C (second compound 0.0316 µM, first compound 3 µM): 4.92%
- viability, T/C (second compound 0.1 µM, first compound 0.00949 µM): 6.43%
- viability, T/C (second compound 0.1 µM, first compound 0.03 µM): 5.72%
- viability, T/C (second compound 0.1 µM, first compound 0.0949 µM): 5.37%
- viability, T/C (second compound 0.1 µM, first compound 0.3 µM): 3.72%
- viability, T/C (second compound 0.1 µM, first compound 0.949 µM): 4.36%
- viability, T/C (second compound 0.1 µM, first compound 3 µM): 5.13%
- viability, T/C (second compound 0.316 µM, first compound 0.00949 µM): 6.26%
- viability, T/C (second compound 0.316 µM, first compound 0.03 µM): 5.71%
- viability, T/C (second compound 0.316 µM, first compound 0.0949 µM): 3.79%
- viability, T/C (second compound 0.316 µM, first compound 0.3 µM): 4.86%
- viability, T/C (second compound 0.316 µM, first compound 0.949 µM): 4.32%
- viability, T/C (second compound 0.316 µM, first compound 3 µM): 5.03%
- viability, T/C (second compound 1 µM, first compound 0.00949 µM): 6.64%
- viability, T/C (second compound 1 µM, first compound 0.03 µM): 7.67%
- viability, T/C (second compound 1 µM, first compound 0.0949 µM): 5.72%
- viability, T/C (second compound 1 µM, first compound 0.3 µM): 4.36%
- viability, T/C (second compound 1 µM, first compound 0.949 µM): 4.31%
- viability, T/C (second compound 1 µM, first compound 3 µM): 4.88%
- viability, T/C (second compound 3.16 µM, first compound 0.00949 µM): 6.84%
- viability, T/C (second compound 3.16 µM, first compound 0.03 µM): 4.76%
- viability, T/C (second compound 3.16 µM, first compound 0.0949 µM): 4.25%
- viability, T/C (second compound 3.16 µM, first compound 0.3 µM): 4.05%
- viability, T/C (second compound 3.16 µM, first compound 0.949 µM): 5.59%
- viability, T/C (second compound 3.16 µM, first compound 3 µM): 4.37%
- viability, T/C (second compound 10 µM, first compound 0.00949 µM): 6.5%
- viability, T/C (second compound 10 µM, first compound 0.03 µM): 4.13%
- viability, T/C (second compound 10 µM, first compound 0.0949 µM): 4.66%
- viability, T/C (second compound 10 µM, first compound 0.3 µM): 4.52%
- viability, T/C (second compound 10 µM, first compound 0.949 µM): 4.25%
- viability, T/C (second compound 10 µM, first compound 3 µM): 4.89%
